Assay [1] relates to HT29 cells. The experiment in a line: Antiproliferative activity against HT29 cells (Cell Titer-Lumi, ATP content). In kind it is cell-based. The note with it: Homo sapiens, HT-29, 72 after compound addition, read-out: HT-29 cells Anti-proliferative activity (IC50 for the inhibition against HT-29 cell growth). The protocol: Example 343. Assay for Antiproliferative Activity Against HT29 Cells
3000 HT29 cells were seed in a 384-well plate (Fisher 142762). After the cells adhered to the wall overnight, the compounds diluted in a gradient were added. 72 later, Cell Titer-Lumi (Beyotime C0068XL) was added to determine the content of ATP in the cells. The growth of the cells was evaluated, and the IC50 for the inhibition of the compounds against cell growth was calculated.

Assay [2] has as its target T1, Wee-1 kinase (Homo sapiens, UniProt P30291).
T1 construct: purchased Invitrogen
The experiment in a line: Inhibitory activity against Wee-1 kinase (Lanthra Screen Wee-1 kinase kit, Tracer 178). Format: binding. As to conditions: Wee-1 kinase 5 nM, Tracer 178 50 nM, 1 h room temperature. Here is the method: Example 342. Assay for Inhibitory Activity of Compounds Against Wee-1 Kinase
The inhibitory activity of compounds against Wee-1 kinase was determined by using the Lanthra Screen Wee-1 kinase kit (Invitrogen). 5 μL of the compound diluted in a gradient with DMSO, 5 μL. of Wee-1 kinase (at a final concentration of 5 nM), 5 μL of an Eu-Anti-GST antibody (at a final concentration of 2 nM) mixture and 5 μL of kinase Tracer 178 (at a final concentration of 50 nM) were mixed well. The plate was read after incubation at room temperature for one hour. For comparison with the DMSO solvent control group, IC50 for the inhibition activity of the compounds against Wee-1 kinase was calculated.

Bounds are passed on as bounds.

A word on the IC50: it is the concentration that inhibits the measured activity by half.

T1 sequence (P30291 whole entry): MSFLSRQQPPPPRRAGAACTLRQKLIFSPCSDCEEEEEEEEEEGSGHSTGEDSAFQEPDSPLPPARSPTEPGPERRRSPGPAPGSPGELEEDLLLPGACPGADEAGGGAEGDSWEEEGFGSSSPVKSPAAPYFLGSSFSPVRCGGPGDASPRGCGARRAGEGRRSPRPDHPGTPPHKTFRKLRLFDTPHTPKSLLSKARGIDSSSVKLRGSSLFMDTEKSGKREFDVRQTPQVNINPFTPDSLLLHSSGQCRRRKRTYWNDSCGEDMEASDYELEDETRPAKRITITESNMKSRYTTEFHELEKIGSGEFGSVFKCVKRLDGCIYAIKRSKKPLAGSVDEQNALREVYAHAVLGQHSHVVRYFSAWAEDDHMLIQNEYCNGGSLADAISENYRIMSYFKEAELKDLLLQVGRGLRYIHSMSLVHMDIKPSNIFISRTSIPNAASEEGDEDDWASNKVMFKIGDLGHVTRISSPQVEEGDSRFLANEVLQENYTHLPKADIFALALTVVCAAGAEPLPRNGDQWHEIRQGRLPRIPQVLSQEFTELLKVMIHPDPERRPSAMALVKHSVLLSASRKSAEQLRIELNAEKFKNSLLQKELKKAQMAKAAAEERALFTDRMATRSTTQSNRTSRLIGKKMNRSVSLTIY

As to `C=CCn1c(=O)c2cnc(Nc3ccc(N4CCN(C)CC4)cc3)nc2n1-c1ccc(=O)n(C(C)(C)C(F)(F)F)n1` [Compound 10], the IC50 was ≤ 1000 nM in assay [1] and ≤ 30 nM in assay [2].
The matching figures for `C=CCn1c(=O)c2cnc(Nc3ccc(N4CCN(C)CC4)nc3)nc2n1-c1ccc(=O)n(C(C)C)n1` [Compound 247]: ≤ 1000 nM and ≤ 30 nM.
Taken in the same sequence, the figures for `C=CCn1c(=O)c2cnc(Nc3ccc(N4CCC(C)(N)CC4)cc3)nc2n1-c1ccc(=O)n(C(C)C)n1` [Compound 107] were ≤ 1000 nM and ≤ 30 nM.
For `CC(C)n1nc(-n2c3nc(Nc4ccc5c(c4)CN(C)CC54CC4)ncc3c(=O)n2C(C)C)ccc1=O` [Compound 280], the IC50 is ≤ 1000 nM in assay [1] and ≤ 30 nM in assay [2].
As for `C=CCn1c(=O)c2cnc(Nc3cc(F)c(N4CCN(C)CC4)c(OC)c3)nc2n1-c1ccc(=O)n(C(C)C)n1` [Compound 64], the IC50 was ≤ 1000 nM in assay [1] and ≤ 30 nM in assay [2].
For the molecule `C=CCn1c(=O)c2cnc(Nc3ccc(C4(C)CCNCC4)cc3)nc2n1-c1ccc(=O)n(C(C)C)n1` [Compound 200], the figures for the IC50 in assay [1] and in assay [2] were ≤ 1000 nM and ≤ 30 nM, respectively.
`C=CCn1c(=O)c2cnc(Nc3ccc(N4CCC5(CC4)CN(C)C5)cc3)nc2n1-c1ccc(=O)n(C(C)C)n1` [Compound 178]: the IC50 is ≤ 1000 nM in assay [1] and ≤ 30 nM in assay [2].
As to `C=CCn1c(=O)c2cnc(Nc3ccc(N4CCN(C)CC4)cc3)nc2n1-c1ccc(=O)n(CC)n1` [Compound 2], the IC50 in assay [1] was > 3000 nM; in assay [2], > 100 nM.
As to `C=CCn1c(=O)c2cnc(Nc3cc(N4CCN(C)CC4)c4ccn(C)c4c3)nc2n1-c1ccc(=O)n(C(C)C)n1` [Compound 255], the figures for the IC50 in assay [1] and in assay [2] were ≤ 1000 nM and ≤ 30 nM, respectively.
Regarding `C=CCn1c(=O)c2cnc(Nc3ccc(N4C[C@@H](C)N(C)[C@@H](C)C4)c(C(F)(F)F)c3)nc2n1-c1ccc(=O)n(C(C)C)n1` [Compound 123], the IC50 in assay [1] is ≤ 1000 nM; in assay [2], ≤ 30 nM.
Consider `C=CCn1c(=O)c2cnc(Nc3ccc(N4CCNCC4)cc3)nc2n1-c1ccc(=O)n(C(C)C)n1` [Compound 31], for which the 50% inhibitory concentration (IC50) in assay [1] is ≤ 1000 nM; in assay [2], ≤ 30 nM.
Turning to `C=CCn1c(=O)c2cnc(Nc3ccc(N4CCC(N(C)C)CC4)c(C)c3)nc2n1-c1ccc(=O)n(C(C)C)n1` [Compound 99], the IC50 in assay [1] is ≤ 1000 nM; in assay [2], ≤ 30 nM.
Taken in the same sequence, the figures for `C=CCn1c(=O)c2cnc(Nc3ccc(N4CCN(C)CC4)cc3)nc2n1-c1ccc(=O)n(CC(C)C)n1` [Compound 4] were 1000 to 3000 nM and 30 to 100 nM.
The matching figures for `C=CCn1c(=O)c2cnc(Nc3ccc4c(c3)CN(C)CC4(C)C)nc2n1-c1ccc(=O)n(C(C)C)n1` [Compound 238]: ≤ 1000 nM and ≤ 30 nM.
Consider `Cc1cc(Nc2ncc3c(=O)n(C4CC4)n(-c4ccc(=O)n(C(C)(C)C)c4)c3n2)ccc1N1CCN(C)CC1` [Compound 339], for which the IC50 in assay [1] was ≤ 1000 nM; in assay [2] it was ≤ 30 nM.
As for `C=CCn1c(=O)c2cnc(Nc3ccc4c(N5CCC(N(C)C)CC5)c[nH]c4c3)nc2n1-c1ccc(=O)n(C(C)C)n1` [Compound 263], the IC50 in assay [1] was ≤ 1000 nM; in assay [2], ≤ 30 nM.
For `C=CCn1c(=O)c2cnc(Nc3ccc(N4CCN(C5CCN(C)CC5)CC4)cc3)nc2n1-c1ccc(=O)n(C(C)C)n1` [Compound 36], the figures for the IC50 in assay [1] and in assay [2] were ≤ 1000 nM and ≤ 30 nM, respectively.
Take `C=CCn1c(=O)c2cnc(Nc3ccc(N4CCC(N(C)C)CC4)cc3)nc2n1-c1ccc(=O)n(C(C)C)n1` [Compound 98]: the IC50 is ≤ 1000 nM in assay [1] and ≤ 30 nM in assay [2].
Take `C=CCn1c(=O)c2cnc(Nc3ccc(N4CC5(CCN(C)C5)C4)cc3)nc2n1-c1ccc(=O)n(C(C)C)n1` [Compound 163]: the values for the IC50 in assay [1] and in assay [2] were ≤ 1000 nM and ≤ 30 nM, respectively.
With `C=CCn1c(=O)c2cnc(Nc3ccc(N4CCC5(CC4)CNC5)c(C)c3)nc2n1-c1ccc(=O)n(C(C)C)n1` [Compound 176], the IC50 was ≤ 1000 nM in assay [1] and ≤ 30 nM in assay [2].
The matching figures for `C=CCn1c(=O)c2cnc(Nc3ccc(N4CCC(N5CCC5)CC4)c(C)c3)nc2n1-c1ccc(=O)n(C(C)C)n1` [Compound 87]: ≤ 1000 nM and ≤ 30 nM.
With `C=CCn1c(=O)c2cnc(Nc3ccc4c(c3)CN(C(C)C)CC4)nc2n1-c1ccc(=O)n(C(C)C)n1` [Compound 227], the IC50 in assay [1] was ≤ 1000 nM; in assay [2], ≤ 30 nM.
As to `CN1Cc2cc(Nc3ncc4c(=O)n(C5CC5)n(-c5ccc(=O)n(C(C)(C)C)n5)c4n3)ccc2C2(CC2)C1` [Compound 295], the IC50 is ≤ 1000 nM in assay [1] and ≤ 30 nM in assay [2].
The matching figures for `C=CCn1c(=O)c2cnc(Nc3ccc(N4CCN(C5CC5)CC4)cc3)nc2n1-c1ccc(=O)n(C(C)C)n1` [Compound 33]: ≤ 1000 nM and ≤ 30 nM.
In the case of `C=CCn1c(=O)c2cnc(Nc3ccc(N4CC(N(C)C)C4)c(C)c3)nc2n1-c1ccc(=O)n(C(C)C)n1` [Compound 78], the figures for the IC50 in assay [1] and in assay [2] were ≤ 1000 nM and ≤ 30 nM, respectively.
Taken in the same sequence, the figures for `Cc1cc(Nc2ncc3c(=O)n(C(C)C)n(-c4cc(F)c(=O)n(C(C)C)c4)c3n2)ccc1C1CCN(C)CC1` [Compound 321] were ≤ 1000 nM and ≤ 30 nM.
With `C=CCn1c(=O)c2cnc(Nc3ccc(N4CCN(C)[C@H](C)C4)c(C)c3)nc2n1-c1ccc(=O)n(C(C)C)n1` [Compound 134], the concentration for half-maximal inhibition (IC50) was ≤ 1000 nM in assay [1] and ≤ 30 nM in assay [2].
Turning to `C=CCn1c(=O)c2cnc(Nc3ccc(N4CC5CCC(C4)N5)cc3)nc2n1-c1ccc(=O)n(C(C)C)n1` [Compound 135], the IC50 in assay [1] lay in the range of 1000 to 3000 nM; in assay [2] it was 30 to 100 nM.
For the molecule `C=CCn1c(=O)c2cnc(Nc3cccc(C4CCN(C)CC4)c3)nc2n1-c1ccc(=O)n(C(C)C)n1` [Compound 205], the IC50 in assay [1] was ≤ 1000 nM; in assay [2] it was ≤ 30 nM.
In the case of `C=CCn1c(=O)c2cnc(Nc3ccc(N4CCN(CC#N)CC4)cc3)nc2n1-c1ccc(=O)n(C(C)C)n1` [Compound 40], the IC50 in assay [1] was ≤ 1000 nM; in assay [2], ≤ 30 nM.
Taken in the same sequence, the figures for `C=CCn1c(=O)c2cnc(Nc3ccc4c(ccn4C4CCNCC4)c3)nc2n1-c1ccc(=O)n(C(C)C)n1` [Compound 269] were ≤ 1000 nM and ≤ 30 nM.
In the case of `C=CCn1c(=O)c2cnc(Nc3cc(N4CCN(C)CC4)c4ccn(C5CC5)c4c3)nc2n1-c1ccc(=O)n(C(C)C)n1` [Compound 258], the IC50 in assay [1] was ≤ 1000 nM; in assay [2], ≤ 30 nM.
On to `C=CCn1c(=O)c2cnc(Nc3ccc(N4CCC(C)(NC)CC4)c(OC)c3)nc2n1-c1ccc(=O)n(C(C)C)n1` [Compound 112], for which the IC50 in assay [1] was ≤ 1000 nM; in assay [2] it was ≤ 30 nM.
As to `Cc1cc(Nc2ncc3c(=O)n(C(C)C)n(-c4cc(F)c(=O)n(C(C)C)c4)c3n2)ccc1N1CCN(C)CC1` [Compound 320], the IC50 in assay [1] was ≤ 1000 nM; in assay [2] it was ≤ 30 nM.
`CCn1c(=O)c2cnc(Nc3ccc(N4CCN(C)CC4)cc3)nc2n1-c1ccc(=O)n(C(C)(C)C)n1` [Compound 284]: the IC50 in assay [1] was ≤ 1000 nM; in assay [2] it was ≤ 30 nM.
Take `Cc1cc(Nc2ncc3c(=O)n(C4CC4)n(-c4ccc(=O)n(C(C)C)n4)c3n2)ccc1C1CCN(C)CC1` [Compound 273]: the IC50 in assay [1] was ≤ 1000 nM; in assay [2] it was ≤ 30 nM.
Consider `C=CCn1c(=O)c2cnc(Nc3ccc(N4CCNCC4)c(C(F)(F)F)c3)nc2n1-c1ccc(=O)n(C(C)C)c1` [Compound 49], for which the half-inhibitory concentration (IC50) in assay [1] is ≤ 1000 nM; in assay [2] it was ≤ 30 nM.
Turning to `C=CCn1c(=O)c2cnc(Nc3ccc(N4CCC(C)(NC)CC4)cc3)nc2n1-c1ccc(=O)n(C(C)C)n1` [Compound 110], the IC50 was ≤ 1000 nM in assay [1] and ≤ 30 nM in assay [2].
In the case of `C=CCn1c(=O)c2cnc(Nc3ccc(N4CCN(C)CC4)c(C(F)(F)F)c3)nc2n1-c1ccc(=O)n(C(C)C)c1` [Compound 50], the IC50 was ≤ 1000 nM in assay [1] and ≤ 30 nM in assay [2].
Take `C=CCn1c(=O)c2cnc(Nc3cc(C)cc(N4CCN(C)CC4)c3)nc2n1-c1ccc(=O)n(C(C)C)n1` [Compound 70]: the IC50 is ≤ 1000 nM in assay [1] and ≤ 30 nM in assay [2].
Take `C=CCn1c(=O)c2cnc(Nc3cc(F)c(N4CCN(C)CC4)c(Cl)c3)nc2n1-c1ccc(=O)n(C(C)C)n1` [Compound 60]: the IC50 in assay [1] was ≤ 1000 nM; in assay [2], ≤ 30 nM.
Taken in the same sequence, the figures for `C=CCn1c(=O)c2cnc(Nc3ccc(N4CC(N5CCCC5)C4)cc3)nc2n1-c1ccc(=O)n(C(C)C)n1` [Compound 83] were ≤ 1000 nM and ≤ 30 nM.
With `C=CCn1c(=O)c2cnc(Nc3ccc(N4CCN(C)CC4)c(CO)c3)nc2n1-c1ccc(=O)n(C(C)C)n1` [Compound 52], the IC50 in assay [1] is 1000 to 3000 nM; in assay [2] it was ≤ 30 nM.
Consider `CCn1c(=O)c2cnc(Nc3ccc(C4CCN(C)CC4)c(C)c3)nc2n1-c1ccc(=O)n(C(C)C)n1` [Compound 276], for which the IC50 in assay [1] was ≤ 1000 nM; in assay [2] it was ≤ 30 nM.
Turning to `CC(C)n1cc(-n2c3nc(Nc4ccc5c(c4)CN(C)CC54CC4)ncc3c(=O)n2C(C)C)ccc1=O` [Compound 306], the IC50 was ≤ 1000 nM in assay [1] and ≤ 30 nM in assay [2].

Values taken from US12522607B2, “Substituted pyrazolo[3,4-d]pyrimidines as wee-1 inhibitors” (WIGEN BIOMEDICINE TECHNOLOGY (SHANGHAI) CO., LTD., priority 2020, dated 2026).
